The text below walks through data of US5670501A, “N-substituted 9-alkyladenines” (Discovery Therapeutics, Inc., priority 1994, dated 1997).

SMILES strings stand for the structures.

As a reminder, the Ki is the dissociation constant of the complex between target and ligand, obtained from inhibition or displacement. The low end stands for higher affinity, the high end for lower affinity. The term Kb denotes the affinity of an antagonist, worked out from how it opposes an agonist.

Test [1] deals with T1, adenosine A1 receptor (Cavia porcellus, UniProt P47745).
T1 construct: from tissue; host or cells: isolated guinea pig left atria
T1 sequence (P47745 1-326): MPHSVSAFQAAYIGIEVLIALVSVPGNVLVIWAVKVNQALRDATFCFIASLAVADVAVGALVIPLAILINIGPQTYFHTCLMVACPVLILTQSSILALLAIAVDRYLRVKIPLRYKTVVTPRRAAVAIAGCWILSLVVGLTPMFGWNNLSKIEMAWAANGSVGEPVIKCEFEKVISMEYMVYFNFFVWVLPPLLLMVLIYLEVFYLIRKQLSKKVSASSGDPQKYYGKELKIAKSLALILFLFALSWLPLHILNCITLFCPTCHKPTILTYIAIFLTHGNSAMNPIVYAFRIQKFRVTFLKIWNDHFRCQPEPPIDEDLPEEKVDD
In words: Receptor affinity (radioligand binding), A1, [3H]CHA, guinea pig tissue. The following applies: room temperature, 2 hours, value obtained using guinea pig tissue. As for the experimental part:
(§1) 1. Receptor Affinity Experiments (Radioligand Binding)
(§2) Tissues (bovine caudate, guinea pig cortex, guinea pig striatum) were homogenized with a Brinkman polytron and the membranes were collected by centrifugation at 40,000×g at 4° C. for 10 min. The membranes were washed by resuspension and centrifugation, resuspended, and incubated in the presence of 1 U/ml adenosine deaminase for 15-30 min. at 37° C. The membranes were diluted, centrifuged once, and resuspended to a final concentration of 0.5-2 mg protein/ml. Adenosine deaminase (0.1 U/ml) was included in the final resuspension. Assays were initiated by addition of membranes. The compounds of the present invention were subjected to the following experimental conditions: A1 determinations/incubated with [^3 H]CHA at room temperature for 2 hours, A2 determinations/incubated with [^3 H]NECA at room temperature for 1 hour. Assays were terminated by filtration, and the filters were counted in scintillation counters.
*This value was obtained using guinea pig tissue.

For test [2], the target named is adenosine A2 receptor. Description: Receptor affinity (radioligand binding), A2, [3H]NECA. Further details: species or system bovine / guinea pig. The following applies: room temperature, 1 hour. The procedure:
as §1, §2

In test [3] the target is T1, adenosine A1 receptor. In words: A1 in vitro functional test: negative inotropic response, left atria, antagonism of NECA. The class given is cell-based, guinea pig. The following applies: for Selectivity Ratio (A2 KB /A1 KB): functional; for Kb: guinea pig left atria, electrically evoked twitch, NECA agonist, 31° C, Schild plot, read-out: A1 KB (antagonist dissociation constant). The procedure: 2. Adenosine--A1 /A2 In Vitro Functional Tests
(A1 Assay: Negative inotropic response)-Guinea pig left atria were placed in organ baths filled with Krebs Henseleit solution gassed with 95% O2 and 5% CO2 and maintained at a temperature of 31° C. An initial resting tension of 1 gm. was placed on each tissue, which was allowed to equilibrate. Atria were stimulated electrically to produce twitch responses. A dose-response curve for the inhibition of the electrically-evoked twitch response was obtained by cumulative addition of the adenosine agonist […]. After the washout of the tissue, a fixed concentration of test compound was added and the tissue allowed to equilibrate for 1 hr. before cumulative additions of the adenosine agonist 5'-N-ethylcarboxamidoadenosine (NECA) to generate a new dose response curve. This procedure was repeated with different fixed concentrations of test compounds to generate a family of dose response curves. Schild plots were constructed from the resultant concentration-effect curves, and KB (antagonist dissociation constant) values were obtained. The results (see Table VII) are expressed as KB values (concentration of test compound such that one-half of the tissue adenosine receptor population is occupied by the test compound).

The target of test [4] is T2, adenosine A1 receptor (Bos taurus, UniProt P28190).
T2 construct: were homogenized with a Brinkman polytron and the membranes were collected by centrifugation; from tissue; host or cells: bovine caudate membranes
T2 sequence (P28190 1-326): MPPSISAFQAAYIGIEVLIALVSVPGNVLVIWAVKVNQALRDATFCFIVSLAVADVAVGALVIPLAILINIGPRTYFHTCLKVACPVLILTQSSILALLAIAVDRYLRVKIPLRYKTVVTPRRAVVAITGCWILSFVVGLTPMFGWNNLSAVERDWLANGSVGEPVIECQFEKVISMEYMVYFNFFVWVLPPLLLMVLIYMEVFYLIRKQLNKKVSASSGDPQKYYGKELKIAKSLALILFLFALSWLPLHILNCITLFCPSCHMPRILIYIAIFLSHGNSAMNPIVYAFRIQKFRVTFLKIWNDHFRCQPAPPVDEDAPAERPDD
In words: Receptor affinity (radioligand binding), A1, [3H]CHA. Further details: species or system bovine. To be noted: for Selectivity Ratio (A2 Ki /A1 Ki): radioligand binding. The procedure:
as §1, §2

As for `CC(C)N(C)c1nc2c(N[C@H]3C[C@H]4CC[C@@H]3C4)ncnc2n1C` (relative stereo) [Example 13, (±)-N^6-(endo-2'-norbornyl)-8-isopropylmethylamino-9-methyladenine], the affinity in test [1], expressed as Ki, was 6.31 nM. In test [2], this compound showed an inhibitory constant (Ki) of 1050 nM. Also, in test [3], the “Selectivity Ratio (A2 KB /A1 KB)” value was above 20000 and the antagonist dissociation constant (Kb) turned out to be 5 nM. Besides, the “Selectivity Ratio (A2 Ki /A1 Ki)” value in test [4] is reported as 166.
As to `Cn1cnc2c(NC3CCCC3)ncnc21` [Example 48, N^6-cyclopentyl-9-methyladenine, reference compound], the Ki was determined as 5010 nM in test [2] and 10 nM in test [4] ([3H]CHA, room temperature, 2 hours, tissues listed: bovine caudate, guinea pig cortex, guinea pig striatum (only Example 13 marked guinea pig)). Besides, in test [3], the “Selectivity Ratio (A2 KB /A1 KB)” value is reported as above 395. The Kb in test [3] is 759 nM. Also, the “Selectivity Ratio (A2 Ki /A1 Ki)” value in test [4] was determined as 501.
